Test results from patent US12239645B2, “Targeted dosing for the treatment of complement mediated disorders” (Achillion Pharmaceuticals, Inc., priority 2018, dated 2025).

Tested on: complement alternative pathway (AP) activity
Test: MAD study: ex vivo serum AP hemolysis activity and PK-PD analysis
Format: in vivo, human
Conditions: for minimum AP activity following dosing: Days 7 and 14
Procedure: Ex vivo serum AP hemolysis assays were conducted in 96-well microtiter plates divided into two parts, one for hemolysis and the other for serum background color subtraction. Briefly, a suspension of rabbit red blood cells (RBCs) was centrifuged at 800×g at 4° C. for 3 minutes and the supernatant was removed to get rid of the RBC debris. The RBC cell pellet was re-suspended gently with pre-chilled gelatin veronal buffer (GVB0) containing 10 mM MgEGTA to a density of 5×10^8 cells/mL. Other controls including buffer, spontaneous rabbit RBC lysis, 100% RBC lysis (in water), and normal serum control were set up alongside the test samples as well. Serum was placed in a 37° C. water-bath until mostly thawed and immediately transferred to ice bath. 20% serum was prepared with GVB0-MgEGTA buffer and kept at ice bath before testing. Reactions were carried out in a 96 well plate by mixing 50 μl of 20% serum with equal volume of GVB0-MgEGTA buffer and then quickly adding 20 μl of RBC suspension. The plate was shaken on a microtiter plate shaker for 5 seconds and then incubated at 37° C. for 30 minutes. Halfway during the incubation period, the plate was shaken for another 5 seconds as described above. At the end of the incubation, the plate was centrifuged at 800×g at 4° C. for 3 minutes to pellet the un-lysed rabbit RBCs. 80 μl of supernatant was removed carefully from all wells and transferred to a clear flat-bottom microtiter plate for the measurement of optical absorbance at 405 nm (A405) in a Molecular Devices Spectramax Plus plate reader. AP hemolysis in each well was calculated relative to the activity of the NHS reference sample formulas as follows: Hemolysis (%)=((Hm−Bk)−(Sp−Bf))/((NH−BkNH)−(Sp−Bf))×100%
where Hm=A405 in the hemolysis well, Bk=A405 in the corresponding background well, Sp=mean A405 in the spontaneous hemolysis wells, Bf=mean A405 in the buffer alone wells, NH=mean A405 in the reference NHS wells, and BkNH=mean A405 in the corresponding background wells.
The PK-PD relationship was evaluated using time-matched plasma Compound 1 concentrations and serum AP inhibition values by non-linear regression with GraphPad Prism (La Jolla, CA) using the following two models: • 1. The simple Emax model to determine the 50% effective concentration (EC50): Y=E0+Emax×X/(EC50+X) where X=plasma Compound 1 concentration, Y=percent inhibition in the corresponding serum sample, E0=0% inhibition (pre-dose AP activity), and Emax=100% inhibition. • 2. The four-parameter sigmoidal model to determine EC50 and the 90% effective concentration (EC90): Y=E0+(Emax−E0)/(1+10^((Log EC50−X)×HillSlope)) where X, Y, E0, and Emax are defined as above (Emax model) and HillSlope=the slope factor or Hill slope. Pharmacodynamic and Pharmacokinetic Results AP Activity Measured with AP Hemolysis
A multiple ascending dose (MAD) study of Compound 1 with two additional single-dose cohorts was also completed. […] Secondary objectives included evaluation of the pharmacokinetic (PK) profile and the relationship between Compound 1 PK and pharmacodynamic (PD) characteristics, that is, the inhibition of complement alternative pathway (AP) activity (PK/PD). In the MAD study, multiple-dose pharmacokinetics and pharmacodynamics of Compound 1 were evaluated in four dose groups administered Compound 1 (40, 80, 120 and 200 mg BID) in the fasted state for 14-days (Table 3). Eight subjects received active drug in each group; eight subjects received placebo in the first dose group (40 mg) and two subjects received placebo in each of the other three dose groups. Two additional cohorts were administered Compound 1 at single doses of 240 mg (fasted subjects) and 120 mg (fed subjects) (Table 3). The two single-dose cohorts each comprised six subjects receiving active drug and two subjects receiving placebo. […]

[1] = 40 mg BID, Day 14, AP hemolysis
[2] = 40 mg BID, Days 7 and 14 Combined Analysis, AP hemolysis
[3] = 80 mg BID, Day 14, AP hemolysis
[4] = 80 mg BID, Days 7 and 14 Combined Analysis, AP hemolysis
[5] = 120 mg BID, Day 7, AP hemolysis
[6] = 120 mg BID, Day 14, AP hemolysis
[7] = 120 mg BID, Days 7 and 14 Combined Analysis, AP hemolysis
[8] = 120 mg and 200 mg BID, 14 days, FIG. 13
[9] = 200 mg BID, Day 7, AP hemolysis
[10] = 200 mg BID, Day 14, AP hemolysis
[11] = 200 mg BID, Days 7 and 14 Combined Analysis, AP hemolysis

Q: Which “% AUEC0-12, Mean” value (40 mg BID, Day 7, AP hemolysis) does the source give for `CC(=O)c1nn(CC(=O)N2[C@H](C(=O)Nc3nc(Br)ccc3C)C[C@@]3(C)C[C@@H]23)c2ccc(-c3cnc(C)nc3)cc12` [Compound 1, (1R,3S,5R)-2-(2-(3-acetyl-5-(2-methylpyrimidin-5-yl)-1H-indazol-1-yl)acetyl)-N-(6-bromo-3-methylpyridin-2-yl)-5-methyl-2-azabicyclo[3.1.0]hexane-3-carboxamide] here?
A: 49.9%

Q: What about the “DURATION0-12 (time with AP inhibition 90% or greater), Mean” value (40 mg BID, Day 7, AP hemolysis) of the same compound?
A: 2.0 h

Q: What about the “% AUEC0-12, Mean” value [1] of the same compound?
A: 61.4%

Q: And the “DURATION0-12 (time with AP inhibition 90% or greater), Mean” value [1]?
A: 2.6 h

Q: And the “minimum AP activity following dosing” value (40 mg BID)?
A: 4.00%

Q: What about the “% AUEC0-12, Mean” value [2] of the same compound?
A: 55.6%

Q: And the “DURATION0-12 (time with AP inhibition 90% or greater), Mean” value [2]?
A: 2.3 h

Q: What about the “% AUEC0-12, Mean” value (80 mg BID, Day 7, AP hemolysis) of the same compound?
A: 87.4%

Q: What about the “DURATION0-12 (time with AP inhibition 90% or greater), Mean” value (80 mg BID, Day 7, AP hemolysis) of the same compound?
A: 7.3 h

Q: What about the “% AUEC0-12, Mean” value [3] of the same compound?
A: 87.7%

Q: What about the “DURATION0-12 (time with AP inhibition 90% or greater), Mean” value [3] of the same compound?
A: 8.0 h

Q: What about the “% AUEC0-12, Mean” value [4] of the same compound?
A: 87.6%

Q: What about the “DURATION0-12 (time with AP inhibition 90% or greater), Mean” value [4] of the same compound?
A: 7.6 h

Q: And the “mean AP activity” value (120 mg BID, 0 h to 10 h on Day 7 and 0 h to 12 h on Day 14)?
A: below 10%

Q: And the “% AUEC0-12, Mean” value [5]?
A: 97.5%

Q: And the “DURATION0-12 (time with AP inhibition 90% or greater), Mean” value [5]?
A: 10.9 h

Q: And the “% AUEC0-12, Mean” value [6]?
A: 98.8%

Q: And the “DURATION0-12 (time with AP inhibition 90% or greater), Mean” value [6]?
A: 11.6 h

Q: And the “% AUEC0-12, Mean” value [7]?
A: 98.2%

Q: What about the “DURATION0-12 (time with AP inhibition 90% or greater), Mean” value [7] of the same compound?
A: 11.3 h

Q: And the “average reduction in AP hemolysis” value [8]?
A: over 95%

Q: What about the “reduction in AP hemolysis for the duration of the study” value [8] of the same compound?
A: over 90%

Q: And the “serum AP hemolysis activity” value (120 mg single dose fed, from 2 h through 6 h)?
A: ≤ 10%

Q: And the “mean AP activity” value (200 mg BID, 0 h to 12 h on Days 7 and 14)?
A: below 10%

Q: And the “% AUEC0-12, Mean” value [9]?
A: 99.5%

Q: What about the “DURATION0-12 (time with AP inhibition 90% or greater), Mean” value [9] of the same compound?
A: 11.9 h

Q: And the “% AUEC0-12, Mean” value [10]?
A: 98.8%

Q: And the “DURATION0-12 (time with AP inhibition 90% or greater), Mean” value [10]?
A: 11.5 h

Q: And the “% AUEC0-12, Mean” value [11]?
A: 99.1%

Q: What about the “DURATION0-12 (time with AP inhibition 90% or greater), Mean” value [11] of the same compound?
A: 11.7 h

Q: What about the “time mean inhibition persisted at 90% or greater post-dose” value (240 mg single dose) of the same compound?
A: at least 12 hours

Q: What about the “serum AP hemolysis activity” value (240 mg single dose fasted, from 1.5 h through 16 h) of the same compound?
A: ≤ 10%

Q: What about the “AP inhibition, all subjects” value (240 mg single dose, within two hours of dosing) of the same compound?
A: ≥ 90%

Q: What about the “minimum AP activity following dosing” value (Groups 2 through 4 (80, 120, 200 mg BID)) of the same compound?
A: 0.00%

Q: And the inhibition at 40 mg (Homo sapiens, 0 h, 40 mg BID, Days 6 Through 14, AP hemolysis, read-out: AP Inhibition at 0 hr, Mean)?
A: 28.7%

Q: What about the inhibition at 80 mg (Homo sapiens, 0 h, 80 mg BID, Days 6 Through 14, AP hemolysis, read-out: AP Inhibition at 0 hr, Mean) of the same compound?
A: 74.1%

Q: And the inhibition at 120 mg (Homo sapiens, 0 h, 120 mg BID, Days 6 Through 14, AP hemolysis, read-out: AP Inhibition at 0 hr, Mean)?
A: 97.2%
